Laboratory results reported in ChEMBL document CHEMBL5154817, “Structure-activity relationship studies on O-alkylamino-tethered salicylamide derivatives with various amino acid linkers as potent anticancer agents” (Eur J Med Chem, 2022).
Calls of active or inactive are those of the source. The rule behind the calls is not given here.

Legend:
MDA-MB-231 [1] = assay: Antiproliferative activity against human MDA-MB-231 cells assessed as inhibition of cell growth incubated for 72 hrs by MTT assay; type: functional, cell-based; settings: MDA-MB-231, 72 h
T47D [2] = assay: Antiproliferative activity against human T47D cells assessed as inhibition of cell growth incubated fro 72 hrs by MTT assay; type: functional, cell-based
MDA-MB-468 [3] = assay: Antiproliferative activity against human MDA-MB-468 cells assessed as inhibition of cell growth incubated for 72 hrs by MTT assay; type: functional, cell-based; settings: MDA-MB-468, 72 h
[4] = Cytotoxicity against human MCF-10A cells incubated for 72 hrs by MTT assay; type: toxicity, cell-based
MCF7 [5] = assay: Antiproliferative activity against human MCF7 cells assessed as inhibition of cell growth incubated for 72 hrs by MTT assay; type: functional, cell-based; settings: MCF7, 72 h
MDA-MB-231 [6] = assay: Induction of apoptosis in human MDA-MB-231 cells assessed as late apoptotic cells at 5 uM incubated for 48 hrs by Annexin V staining based cell analyzer method (reference value: 4.45%); type: functional
MDA-MB-231 [7] = assay: Induction of apoptosis in human MDA-MB-231 cells assessed as early apoptotic cells at 10 uM incubated for 48 hrs by Annexin V staining based cell analyzer method (reference value: 2.6%); type: functional
[8] = biological target: Signal transducer and activator of transcription 3 (Homo sapiens) (UniProt P40763); assay: Inhibition of STAT3 in human MDA-MB-231 cells assessed as suppression of STAT3 phosphorylation incubated for 24 hrs by Western blotting analysis; type: cell-based; settings: dose 1-10 µM, DDE = dose-dependent effect
MDA-MB-231 [9] = assay: Induction of apoptosis in human MDA-MB-231 cells assessed as early apoptotic cells at 1 uM incubated for 48 hrs by Annexin V staining based cell analyzer method (reference value: 2.6%); type: functional
MDA-MB-231 [10] = assay: Induction of apoptosis in human MDA-MB-231 cells assessed as viable cells at 10 uM incubated for 48 hrs by Annexin V staining based cell analyzer method (reference value: 92.55%); type: functional; settings: read-out: Activity
MCF7 [11] = assay: Inhibition of colony formation in human MCF7 cells incubated for 2 weeks measured by crystal violet staining method; type: functional, cell-based; settings: dose 1-10 µM, DDE = dose-dependent effect
MDA-MB-231 [12] = assay: Inhibition of colony formation in human MDA-MB-231 cells incubated for 2 weeks measured by crystal violet staining method; type: functional, cell-based; settings: dose 0.1-3 µM, DDE = dose-dependent effect
MDA-MB-231 [13] = assay: Induction of apoptosis in human MDA-MB-231 cells assessed as late apoptotic cells at 10 uM incubated for 48 hrs by Annexin V staining based cell analyzer method (reference value: 4.45%); type: functional
T47D [14] = assay: Inhibition of colony formation in human T47D cells incubated for 2 weeks measured by crystal violet staining method; type: functional, cell-based; settings: dose 0.5-7.5 µM, DDE = dose-dependent effect
MDA-MB-231 [15] = assay: Induction of apoptosis in human MDA-MB-231 cells assessed as viable cells at 1 uM incubated for 48 hrs by Annexin V staining based cell analyzer method (reference value: 92.55%); type: functional; settings: read-out: Activity
[16] = Toxicity in nude mouse xenografted with human MDA-MB-231 cells assessed as loss of body weight at 7.5 to 10 mg/kg, ip measured daily for 14 days; type: organism-based; settings: in vivo, 336 h, dose 7.5-10 mg/kg, time 14 day
MDA-MB-231 [17] = assay: Antitumor activity against human MDA-MB-231 cells xenografted in nude mouse assessed as reduction in tumor volume at 10 mg/kg, ip measured every other day for 14 days; type: functional; settings: MDA-MB-231, 336 h, time 14 day
MDA-MB-231 [18] = assay: Induction of apoptosis in human MDA-MB-231 cells assessed as viable cells at 5 uM incubated for 48 hrs by Annexin V staining based cell analyzer method (reference value: 92.55%); type: functional; settings: read-out: Activity
MDA-MB-231 [19] = assay: Induction of apoptosis in human MDA-MB-231 cells assessed as increase in cleaved caspase-3 level at 1 to 10 uM incubated for 48 hrs by Western blotting analysis; type: functional, cell-based; settings: dose 1-10 µM
MDA-MB-231 [20] = assay: Induction of apoptosis in human MDA-MB-231 cells assessed as necrotic cells at 1 uM incubated for 48 hrs by Annexin V staining based cell analyzer method (reference value: 0.4%); type: functional
MDA-MB-231 [21] = assay: Induction of apoptosis in human MDA-MB-231 cells assessed as necrotic cells at 10 uM incubated for 48 hrs by Annexin V staining based cell analyzer method (reference value: 0.4%); type: functional
MDA-MB-231 [22] = assay: Induction of apoptosis in human MDA-MB-231 cells assessed as downregulation of Bcl-2 level at 1 to 10 uM incubated for 48 hrs by Western blotting analysis; type: functional, cell-based; settings: dose 1-10 µM
MDA-MB-231 [23] = assay: Induction of apoptosis in human MDA-MB-231 cells assessed as activation of Bax at 1 to 10 uM incubated for 48 hrs by Western blotting analysis; type: functional, cell-based; settings: dose 1-10 µM
MDA-MB-231 [24] = assay: Induction of apoptosis in human MDA-MB-231 cells assessed as increase in cleaved PARP level at 1 to 10 uM incubated for 48 hrs by Western blotting analysis; type: functional, cell-based; settings: dose 1-10 µM
MDA-MB-231 [25] = assay: Induction of apoptosis in human MDA-MB-231 cells assessed as early apoptotic cells at 5 uM incubated for 48 hrs by Annexin V staining based cell analyzer method (reference value: 2.6%); type: functional
MDA-MB-468 [26] = assay: Inhibition of colony formation in human MDA-MB-468 cells incubated for 2 weeks measured by crystal violet staining method; type: functional, cell-based; settings: dose 0.5-7.5 µM, DDE = dose-dependent effect
MDA-MB-231 [27] = assay: Induction of apoptosis in human MDA-MB-231 cells assessed as late apoptotic cells at 1 uM incubated for 48 hrs by Annexin V staining based cell analyzer method (reference value: 4.45%); type: functional
MDA-MB-231 [28] = assay: Induction of apoptosis in human MDA-MB-231 cells assessed as necrotic cells at 5 uM incubated for 48 hrs by Annexin V staining based cell analyzer method (reference value: […]); type: functional

Signal transducer and activator of transcription 3 (Homo sapiens), sequence (P40763 whole entry): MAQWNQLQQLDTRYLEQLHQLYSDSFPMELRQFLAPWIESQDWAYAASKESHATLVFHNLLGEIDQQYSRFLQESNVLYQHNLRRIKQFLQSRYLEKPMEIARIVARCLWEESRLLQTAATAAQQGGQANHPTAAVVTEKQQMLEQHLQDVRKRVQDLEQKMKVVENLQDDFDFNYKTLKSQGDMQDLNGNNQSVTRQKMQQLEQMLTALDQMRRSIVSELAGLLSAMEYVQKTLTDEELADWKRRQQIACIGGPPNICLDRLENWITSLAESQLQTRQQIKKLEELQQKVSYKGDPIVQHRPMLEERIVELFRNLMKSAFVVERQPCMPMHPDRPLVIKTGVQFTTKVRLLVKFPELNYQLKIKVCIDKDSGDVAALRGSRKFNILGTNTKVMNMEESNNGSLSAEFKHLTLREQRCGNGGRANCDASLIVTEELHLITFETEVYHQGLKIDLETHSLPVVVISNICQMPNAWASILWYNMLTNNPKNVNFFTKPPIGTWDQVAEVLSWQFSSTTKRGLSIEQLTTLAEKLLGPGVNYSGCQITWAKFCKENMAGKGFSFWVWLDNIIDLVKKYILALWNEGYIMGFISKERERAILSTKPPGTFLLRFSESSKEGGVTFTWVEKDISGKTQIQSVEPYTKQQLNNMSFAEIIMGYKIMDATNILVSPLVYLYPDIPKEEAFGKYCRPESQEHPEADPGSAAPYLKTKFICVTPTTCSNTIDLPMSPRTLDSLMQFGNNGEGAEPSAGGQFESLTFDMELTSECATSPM

CC(C)[C@H](NC(=O)c1cc(Cl)ccc1OCCNC(=O)OC(C)(C)C)C(=O)Nc1ccc2c(c1)S(=O)(=O)C=C2
IC50 (MDA-MB-231 [1]): 1.53 µM
IC50 (T47D [2]): 1.59 µM
IC50 (MDA-MB-468 [3]): 2.38 µM
IC50 at 72 h [4]: 2.6 µM
IC50 (MCF7 [5]): 1.52 µM

O=C(N[C@@H](Cc1ccccc1)C(=O)Nc1cc(C(F)(F)F)cc(C(F)(F)F)c1)c1cc(Cl)ccc1OC1CCNCC1
IC50 (MDA-MB-231 [1]): 2.32 µM
IC50 (T47D [2]): 3.19 µM
IC50 (MDA-MB-468 [3]): 2.63 µM
IC50 at 72 h [4]: 5.9 µM
IC50 (MCF7 [5]): 2.63 µM

CC(C)[C@H](NC(=O)c1cc(Cl)ccc1OCCNC(=O)OC(C)(C)C)C(=O)Nc1ccc([N+](=O)[O-])cc1Cl
IC50 (MDA-MB-231 [1]): 3.38 µM
Activity (MDA-MB-231 [6]): 10.9%
Activity (MDA-MB-231 [7]): 17.85%
inhibition [8]: Dde
Activity (MDA-MB-231 [9]): 2.85%
viability at 10 µM (MDA-MB-231 [10]): 44.9%
inhibition (MCF7 [11]): Dde
IC50 (T47D [2]): 8.92 µM
inhibition (MDA-MB-231 [12]): Dde
Activity (MDA-MB-231 [13]): 35.7%
IC50 (MDA-MB-468 [3]): 18.3 µM
inhibition (T47D [14]): Dde
viability at 1 µM (MDA-MB-231 [15]): 94.2%
Activity [16]: Non-Toxic
inhibition in vivo at 10 mg/kg (MDA-MB-231 [17]): 55%
viability at 5 µM (MDA-MB-231 [18]): 78.8%
Activity (MDA-MB-231 [19]): Active
Activity (MDA-MB-231 [20]): 0.3%
Activity (MDA-MB-231 [21]): 1.6%
IC50 at 72 h [4]: > 60 µM
Activity (MDA-MB-231 [22]): Active
Activity (MDA-MB-231 [23]): Active
Activity (MDA-MB-231 [24]): Active
Activity (MDA-MB-231 [25]): 9.75%
inhibition (MDA-MB-468 [26]): Dde
Activity (MDA-MB-231 [27]): 2.6%
Activity (MDA-MB-231 [28]): 0.55%
IC50 (MCF7 [5]): 9.05 µM

NCCOc1ccc(Cl)cc1C(=O)N[C@@H](Cc1ccccc1)C(=O)Nc1ccc2c(c1)S(=O)(=O)C=C2
IC50 (MDA-MB-231 [1]): 1.4 µM
IC50 (T47D [2]): 1.58 µM
IC50 (MDA-MB-468 [3]): 3.53 µM
IC50 at 72 h [4]: 2.03 µM
IC50 (MCF7 [5]): 1.62 µM

NCCOc1ccc(Cl)cc1C(=O)Nc1ccc([N+](=O)[O-])cc1Cl
IC50 (MDA-MB-231 [1]): 3.48 µM
IC50 (T47D [2]): 1.88 µM
IC50 (MDA-MB-468 [3]): 5.05 µM
IC50 (MCF7 [5]): 4.14 µM

CC(C)(C)OC(=O)NCCOc1ccc(Cl)cc1C(=O)N[C@@H](Cc1ccccc1)C(=O)Nc1ccc2c(c1)S(=O)(=O)C=C2
IC50 (MDA-MB-231 [1]): 1.17 µM
IC50 (T47D [2]): 1.46 µM
IC50 at 72 h [4]: 1.73 µM
IC50 (MCF7 [5]): 1.53 µM
